Measurements: US12029732B2, “Treatment of vascular and lymphatic disease” (priority 2019, dated 2024)
“Also recorded” adds a separate entry of the source.

How the values were obtained:
[1] = system: RP27M2 (Rpl27a^low/+:Mdm2^+/−) mice; test: PFT / c-PFT treatment of pregnant mice carrying RP27M2 embryos (high-p53 lymphedema model); assay type: in vivo, mouse; conditions: for ratio of mutant pups at birth: RP27M2; for ratio of mutant pups at birth / edema: mothers treated daily from E11.5; for cutaneous hemorrhaging / embryonic (in utero) lethality: RP27M2 mutants, mothers treated daily from E11.5 until delivery; for edema: RP27M2 pups
Method: (§1) All mice were maintained on a C57BL/6J background. For timed pregnancies, the first day of observed plug were recorded as day 0.5 post-coitum or embryonic day 0.5 (E0.5). Mice haploinsufficient for the ribosomal protein L27a (Rpl27^low/+) are crossed with Mdm2 or Mdm4 heterozygous mice (Mdm2^+/− or Mdm4^+/−) to generate WT, Rpl27^low/+, Mdm2^+/−, Rpl27^low/+:Mdm2^+/− (RP27M2), Mdm4^+/−, and Rpl27^low/+:Mdm4^+/− mice (RP27M4). To generate mice on a p53-deficient background, we crossed Rpl27^low/+ mice to Mdm2^−/−:p53^−/− or Mdm4^−/−:p53^−/− mice. We therefore obtained RP27M2:p53^+/− mice and RP27M4:p53^+/− mice (FIG. 8). Genotypes were determined by PCR analysis of extracted DNA from tails using published primer sets for Mdm2, Mdm4, and p53. The sex of embryos was determined by detection of Sry and Raspn genes by PCR. Animal care and euthanasia guidelines of the Colorado Institutional Animal Care and Use Committee were followed for all animal work.
(§2) A 10 mM stock of Pifithrin-α (PFT-α, Selleck Bio, cat. S2929) was diluted 1:10 in 1×PBS, protected from light and used instantly. Pregnant mice were injected intraperitoneally from E11.5 to E16.5 and subcutaneously from E17.5 until delivery at 2.2 mg/kg of weight. Animal were monitored daily post-treatment and weights were recorded after delivery.
(§3) Tissues were fixed in 4% neutral buffered paraformaldehyde, processed, and embedded in paraffin by the UCD Research Histology core. Sagittal sections (5 μm) were subjected to immunofluorescence staining (IF) as previously described and according to the manufacturer's recommendations. The primary antibodies used for IF were monoclonal mouse Prox-1 (1:50, P21936, Thermofisher Scientific, Massachusetts, USA), monoclonal rabbit Lyve-1 (1:100, ab14917, Abcam Inc., California, USA), polyclonal rabbit Ki-67 (1:1000, VP-K451, Vector Laboratories, California, USA) and mouse monoclonal p21 (1:100, sc-6246, Santa Cruz Biotechnology, California, USA) antibodies. We used anti-rabbit or anti-mouse Alexa Fluor 594 or Alexa Fluor 488 conjugated secondary antibodies (1:1000, Invitrogen, California, USA), captured the images on a Nikon Eclipse 90i, and quantified using the ImageJ software. Pediatric lymphatic edema was categorized using the ISSVA Classification of Vascular Anomalies and confirmed by PdPn (D2-40 antibody, Ventana or RnD Systems AF3670) staining. IHC for p53 on human tissues were performed using the D-07 antibody (Ventana) on automated strainers (Ventana Ultra) following the manufacturer's recommendations and Clinical Laboratory Improvement Amendments (CLIA) certified procedures. For the visualization of the three-dimensional lymphatic vasculature, murine skin were fixed in 4% Paraformaldehyde (PFA) for 2-4 hours at room temperature for whole mount staining. Tissues were then subjected to procedures as published. H&E was performed following Harris protocols for staining.
(§4) To confirm the contribution of p53 overexpression to lymphedema, a pharmacological approach was used by testing a known reversible p53 negative modulator, Pifithrin-α (PFT). For this, time mating of Rpl27^low/+ mice was set up with Mdm2^+/−, or Mdm4^+/−, mice. Females carrying both models were injected intraperitoneally (IP) daily from E11.5 to […] and their weight gain was recorded until delivery. […] 100% of PFT-RP27M4 mice died did shortly after birth. […] It was speculated that the extent of phenotypic rescue at the low PFT dose used may be determined by the severity of the presentation. Therefore, increasing the amount of PFT given to the RP27M4 carrying mothers may allow for RP27M4 pups to survive.

[2] = system: RP27M4 (Rpl27a^low/+:Mdm4^+/−) mice; test: PFT / c-PFT treatment of pregnant mice carrying RP27M4 embryos (high-p53 lymphedema model); assay type: in vivo, mouse; conditions: for ratio of mutant pups at birth: RP27M4; for ratio of mutant pups at birth / edema: mothers treated daily from E11.5; for cutaneous hemorrhaging / embryonic (in utero) lethality: RP27M4 mutants, mothers treated daily from E11.5 until delivery; for edema: RP27M4 pups
Method: as §1, §2, §3, §4

[3] = DMSO; cited from earlier work

In the case of `Br.Cc1ccc(C(=O)Cn2c3c(sc2=N)CCCC3)cc1` [PFT, 2-[2-Imino-4,5,6,7-tetrahydrobenzothiazol-3-yl]-1-p-tolylethanone hydrobromide], the “appearance of treated pups compared with WT” value ([1]; PFT-RP27M2 mice) is reported as “indistinguishable from WT”, the “pups survived until at least 10 days old” value ([1]; PFT-RP27M2 mice, 2.2 mg/kg to mothers) is reported as 100% and the “subcutaneous edema, H&E staining of dorsal skin” value ([1]; RP27M2, P0 skin) is reported as “no evident subcutaneous edema”. For the same compound, the “lymphatic vessel size, Lyve-1 staining of skin” value ([1]; RP27M2, postnatal day 0 (P0)) was “reverted to a normal size”, the “ratio of mutant pups at birth” value ([1]; hydrobromide) was “born following a Mendelian ratio; also recorded: born at a Mendelian ratio” and the “ratio of mutant pups at birth” value ([1]; listed as PFT-a, hydrobromide) was “born at Mendelian ratio”. For the same compound, the cutaneous hemorrhaging ([1]; hydrobromide) was “reversed symptoms of edema and hemorrhaging; also recorded: eliminates visible skin hemorrhaging; also recorded: no signs of hemorrhaging”, the “embryonic (in utero) lethality” value ([1]; hydrobromide) was “rescued; also recorded: rescues in utero lethality” and the cutaneous hemorrhaging ([1]; listed as PFT-a, hydrobromide) was “do not exhibit cutaneous hemorrhaging”. For the same compound, the edema ([1]; hydrobromide) was “reversed symptoms of edema and hemorrhaging”, the edema ([1]; listed as PFT-a, hydrobromide) was “do not exhibit cutaneous hemorrhaging and severe edema” and the “pups died shortly after birth” value ([2]; PFT-RP27M4 mice, 2.2 mg/kg to mothers) was 100%. The “subcutaneous edema, H&E staining of dorsal skin” value ([2]; RP27M4, P0 skin) was “no evident subcutaneous edema”, the “lymphatic vessel size, Lyve-1 staining of skin” value ([2]; RP27M4, postnatal day 0 (P0)) was “reverted to a normal size” and the “ratio of mutant pups at birth” value ([2]; hydrobromide) was “born following a Mendelian ratio; also recorded: born at a Mendelian ratio”. For the same compound, the “ratio of mutant pups at birth” value ([2]; listed as PFT-a, hydrobromide) was “born at Mendelian ratio”, the cutaneous hemorrhaging ([2]; hydrobromide) was “reversed symptoms of edema and hemorrhaging; also recorded: eliminates visible skin hemorrhaging; also recorded: no signs of hemorrhaging” and the “embryonic (in utero) lethality” value ([2]; hydrobromide) was “rescued; also recorded: rescues in utero lethality”. The cutaneous hemorrhaging ([2]; listed as PFT-a, hydrobromide) was “do not exhibit cutaneous hemorrhaging”, the postnatal survival ([2]; RP27M4 pups after PFT treatment of mothers) was “did not survive past the first day” and the edema ([2]; hydrobromide) was “reversed symptoms of edema and hemorrhaging; also recorded: considerably reduced”. For the same compound, the edema ([2]; listed as PFT-a, hydrobromide) was “do not exhibit cutaneous hemorrhaging and severe edema” and the solubility [3] was “soluble”.
In the case of `Br.Cc1ccc(-c2cn3c4c(sc3n2)CCCC4)cc1` [c-PFT, Cyclic pifithrin-α hydrobromide], the cutaneous hemorrhaging [1] is reported as “eliminates visible skin hemorrhaging”, the “embryonic (in utero) lethality” value ([1]; hydrobromide) is reported as “rescued; also recorded: rescues in utero lethality” and the cutaneous hemorrhaging [2] is reported as “eliminates visible skin hemorrhaging”. For the same compound, the “embryonic (in utero) lethality” value ([2]; hydrobromide) was “rescued; also recorded: rescues in utero lethality”.
